5 compounds from PMC11672562, “Synthesis and Antibacterial Activity of New 6″-Modified Tobramycin Derivatives” (Antibiotics, 2024) can be followed below.

For one assay, the system named is P. aeruginosa ATCC 27853. The assay can be described thus: MIC, broth microdilution, P. aeruginosa ATCC 27853. The format is cell-based. As for the experimental part: The microbial strains used in this study were obtained from the collection of the Gause Institute of New Antibiotics. […] Storage was carried out in accordance with CLSI guidelines.
(§1) Activity was evaluated by determining the minimum inhibitory concentration (MIC) values using the microdilution method in Mueller–Hinton Broth (Beckton and Dickinson, Le Pont-de-Claix, France), in accordance with the standard procedure for assessing the antimicrobial susceptibility of microorganisms.
(§2) The analysis was conducted in 96-well microtiter plates (Medpolymer, Saint Petersburg, Russia). The bacterial inoculum was introduced within 15 min of preparation. […] Microbial growth in the presence of the tested compounds was compared to the growth control (without exposure to the test samples). The MIC was defined as the lowest concentration at which visible microbial growth was inhibited.
(§3) The MIC values of the reference strains were required to fall within the acceptable ranges specified in [30], provided that standard assay conditions were maintained.

For assay [1], the system named is resistant clinical isolates of P. aeruginosa. The assay can be described thus: MIC against resistant clinical isolates of P. aeruginosa. The format is cell-based. The conditions noted are these: Pseudomonas aeruginosa, P. aeruginosa strain. As for the experimental part:
(§4) The microbial strains used in this study were obtained from the collection of the Gause Institute of New Antibiotics. […] Storage was carried out in accordance with CLSI guidelines. Prior to experimentation, the bacterial strains were revived from cryopreservation by inoculating them onto trypticase soy agar (Becton, Dickinson, France) and incubating at (36 ± 1) °C for 16–24 h. Individual morphologically homogeneous colonies were then suspended in sterile physiological saline, and the turbidity of the suspension was adjusted to 0.5 McFarland units using a DEN-1 spectrophotometer (Biosan, Riga, Latvia), which corresponds to a concentration of 1.5 × 10^8 CFU/mL.
(§5) The samples were dissolved in sterile distilled water or dimethyl sulfoxide (DMSO), depending on the physicochemical properties of the compounds under investigation, to a concentration of 10,000 µg/mL.
as §1, §2

The next assay has as its system E. coli JW5503 kanS. The experiment in a line: MIC in LB medium, E. coli JW5503 kanS. The settings on record: 18 h. The format is cell-based. As to the method:
(§6) The determination of the minimum inhibitory concentration (MIC) was performed on three strains from the working collection of MSU: E. coli JW5503 [34], which lacked a kanamycin resistance cassette removed as per the method outlined in [39], and two strains derived from this strain through in vivo selection with kanamycin. The latter strains harbored P610T and P610L substitutions in the fusA gene. For the MIC determination, 100 μL (rows 2–11) and 200 μL (row 1) of LB liquid medium containing a 1:1000 dilution of overnight culture was added to each well of a 96-well transparent plate. Subsequently, 2 μL of a 50 μg/mL antibiotic solution was introduced into the first row, and serial two-fold dilutions were performed across each horizontal row, decreasing the antibiotic concentration incrementally. The final two rows were designated as controls: row 12 contained LB medium without cells or antibiotics, and row 11 contained cells without antibiotics. Following 18 h of incubation at 37 °C with constant agitation, the optical density at 590 nm (A590) was measured using a Victor X5 2030 spectrofluorometer (PerkinElmer, Waltham, MA, USA). The MIC was defined as the antibiotic concentration in the first well where no cell growth occurred. Each experiment was conducted in triplicate for all tested antibiotics.

The test system of assay [2] is E. coli JW5503 kanS EF-G P610T. The assay can be described thus: MIC in LB medium, aminoglycoside-resistant mutant EF-G P610T. Type of assay: cell-based. The conditions noted are these: 18 h. As for the experimental part:
as §6

For assay [3], the system named is E. coli JW5503 kanS EF-G P610L. The experiment in a line: MIC in LB medium, aminoglycoside-resistant mutant EF-G P610L. Type of assay: cell-based. The conditions noted are these: 18 h. As to the method: as §6
Assay [4] deals with E. coli S30 Extract System, firefly luciferase synthesis. The assay can be described thus: Cell-free translation inhibition assay (firefly luciferase synthesis). The settings on record: final concentration of 2 μM; water = 100. Type of assay: biochemical. As to the method:
The inhibitory effects of the tested compounds on in vitro firefly luciferase synthesis were evaluated using the E. coli S30 Extract System for Linear Templates (Promega, Madison, WI, USA), as described previously. Briefly, reaction mixtures with a total volume of 5 μL were prepared, containing 0.1 mM of a mixture of all canonical amino acids, 4 U of RiboLock RNase Inhibitor (Thermo Fisher Scientific, Waltham, MA, USA), and 2 μM of the tested compounds. After pre-incubation at room temperature for 5 min, 100 ng of in vitro-transcribed firefly luciferase mRNA was added. The mixtures were then incubated at 37 °C for 20 min. After incubation, each reaction was supplemented with 5 μL of Bright-Glo™ reagent (Promega, Madison, WI, USA), and chemiluminescence was measured using a VICTOR X5 Multilabel Plate Reader (PerkinElmer, Waltham, MA, USA). The luminescence values were normalized to the negative control (water), which was assigned 100% activity.

Assay [5] has as its system E. coli JW5503 transformed with pJC27 plasmids. The experiment in a line: Translation accuracy reporter (mutant β-galactosidase, X-Gal staining). The settings on record: 4a,b, 6a,b and tobramycin 50 mg/mL; streptomycin, kanamycin 5 mg/mL; rifampicin 1 mg/mL. The format is cell-based. The source says: It is known that tobramycin inhibits protein biosynthesis by the blocking of initiation and inducing translation errors. We have tested whether the new tobramycin derivatives 4a,b and 6a,b retain the ability to induce translation errors. This assay uses an E. coli strain with a plasmid construct that encodes beta-galactosidase in such a way that a functional protein is only synthesized in the presence of translation errors. If the mechanism of action of the antibiotic is related to the translation errors, we observe indigo blue staining along the edge of the inhibition zone because functional b-galactosidase degrades the substrate X-Gal. As a result, if the antibiotic causes translation errors, blue staining forms around the edge of the inhibition zone. […] According to this, an introduction at the 6″-position of the aminoalkylamino or guanidinoalkylamino residues of tobramycin retains an original mechanism of aminoglycoside’s antibacterial activity affecting the protein synthesis.
To qualitatively evaluate translation accuracy in the presence of antibiotics, E. coli JW5503 [34] (kanamycin resistance cassette removed as per) transformed with pJC27 plasmids was utilized. The plasmids encode the β-galactosidase gene containing a mutation in its active center (E537: GAA→GAC/GGG), alongside a control plasmid without the mutation. Active β-galactosidase synthesis could only occur if translation errors were introduced. Petri dishes (9 cm) containing 20 mL of solid LB agar (1.5%) supplemented with chloramphenicol (11.3 μg/mL) and X-Gal (80 μg/mL) were prepared. A secondary layer comprising 3.5 mL of LB agar (0.6%), supplemented with 11.3 μg/mL chloramphenicol and 0.5 mL of liquid culture (A600~1.0), was added and allowed to solidify. Antibiotics were applied to the plates in 1 μL aliquots at the following concentrations: 50 mg/mL for 4a, 4b, 6a, 6b, and tobramycin; 5 mg/mL for streptomycin and kanamycin; and 1 mg/mL for rifampicin. Plates were incubated at 37 °C for 18 h. […] Results were documented using a Samsung Galaxy Tab A71 camera.

The next assay deals with S. aureus ATCC 29213. The experiment in a line: MIC, broth microdilution, S. aureus ATCC 29213. Type of assay: cell-based. As for the experimental part: as §4, §5, §1, §2, §3
A further assay relates to E. coli ATCC 25922. The assay can be described thus: MIC, broth microdilution, E. coli ATCC 25922. The format is cell-based. As to the method:
as §4, §5, §1, §2, §3
Background: Broth dilution looks for growth in wells or tubes with falling amounts of substance.

A further assay concerns E. coli JW5503. The assay can be described thus: MIC, broth microdilution, E. coli JW5503. The conditions noted are these: E. coli JW5503; Table 1. The format is cell-based. As for the experimental part: as §4, §5, §1, §2
The subject of another assay is M. smegmatis ATCC 607. The experiment in a line: MIC, broth microdilution, M. smegmatis ATCC 607. The conditions noted are these: Table 1. Type of assay: cell-based. As for the experimental part:
as §4, §5, §1, §2

Setting [6] is: quality control, must fall in acceptable ranges of [30].

Converted amounts (≈) assume the structure as drawn. Like-named read-outs stand apart in the source and are kept apart here.

The MIC is the least concentration at which growth counts as inhibited. For the compound `C[C@H]1[C@H](NC(=O)/C(=N\OC(C)(C)C(=O)O)c2csc(N)n2)C(=O)N1S(=O)(=O)O` [Aztreonam, aztreonam, reference compound], the MIC in the assay on P. aeruginosa ATCC 27853 (Pseudomonas aeruginosa, ATCC27853, P. aeruginosa ATCC 27853, Table 2, read-out: MIC) came out at 4 µg/mL (≈ 9.19 µM); in [1] (Table 2 column 3, head prints 27853) it was 16 µg/mL (≈ 36.7 µM); in assay [1] (Table 2 column 4, head prints 27853), 8 µg/mL (≈ 18.4 µM); in assay [1] (Table 2 column 5, head prints 27853) it was 32 µg/mL (≈ 73.5 µM); in assay [1] (Table 2 column 6, head prints 27853) it was 16 µg/mL (≈ 36.7 µM); in assay [1] (Table 2 column 7, head prints 27853), 16 µg/mL (≈ 36.7 µM).

Regarding `CC[C@H]1OC(=O)[C@H](C)[C@@H](O[C@H]2C[C@@](C)(OC)[C@@H](O)[C@H](C)O2)[C@H](C)[C@@H](O[C@@H]2O[C@H](C)C[C@H](N(C)C)[C@H]2O)[C@](C)(O)C[C@@H](C)C(=O)[C@H](C)[C@@H](O)[C@]1(C)O` [Erythromycin, erythromycin, reference compound], the MIC against E. coli JW5503 kanS (Escherichia coli, JW5503KANS) stood at 2 µg/mL (≈ 2.73 µM); in [2] (Escherichia coli), 2 µg/mL (≈ 2.73 µM); in [3] (Escherichia coli) it was 2 µg/mL (≈ 2.73 µM). Also, the “% control signal (relative maximal rate of firefly luciferase accumulation in vitro)” value in assay [4] is 0.8%.

Regarding `CO[C@H]1/C=C/O[C@@]2(C)Oc3c(C)c(O)c4c(O)c(c(/C=N/N5CCN(C)CC5)c(O)c4c3C2=O)NC(=O)/C(C)=C\C=C\[C@H](C)[C@H](O)[C@@H](C)[C@@H](O)[C@@H](C)[C@H](OC(C)=O)[C@@H]1C` [Rifampicin, rifampicin, reference compound], the MIC turned out to be 5 µg/mL (≈ 6.08 µM) with E. coli JW5503 kanS (Escherichia coli, JW5503KANS); 5 µg/mL (≈ 6.08 µM) in assay [2] (Escherichia coli); 5 µg/mL (≈ 6.08 µM) in assay [3] (Escherichia coli). Further, the “% control signal (relative maximal rate of firefly luciferase accumulation in vitro)” value in assay [4] is recorded as 87%. Further, the “induction of translation errors (blue staining at edge of inhibition zone)” value in assay [5] was “does not induce ribosomal errors”.

For the compound `[H]/N=C(/N)N[C@H]1[C@H](O)[C@@H](O)[C@H](O[C@@H]2O[C@@H](C)[C@](O)(C=O)[C@H]2O[C@@H]2O[C@@H](CO)[C@H](O)[C@@H](O)[C@@H]2NC)[C@@H](N/C(N)=N\[H])[C@@H]1O` [streptomycin, reference compound], the “induction of translation errors (blue staining at edge of inhibition zone)” value in [5] was “acted as miscoding inductors”.

As to kanamycin A [reference compound], the MIC against S. aureus ATCC 29213 (Table 1) is listed as 0.5 µg/mL; in the assay with E. coli ATCC 25922 (Table 1), 1 µg/mL; in the assay with E. coli JW5503 it was 1 µg/mL; with P. aeruginosa ATCC 27853 (P. aeruginosa ATCC 27853, Table 1), >32 µg/mL; in the assay with P. aeruginosa ATCC 27853 (P. aeruginosa ATCC 27853, Table 1, listed as kanamycin), > 32 µg/mL; against M. smegmatis ATCC 607, 0.125 µg/mL. The MIC came to 5 µg/mL against E. coli JW5503 kanS (E. coli JW5503 kanS, LB medium); 80 µg/mL in [2] (E. coli JW5503 kanS EF-G P610T, LB medium); 80 µg/mL in assay [3] (E. coli JW5503 kanS EF-G P610L, LB medium). The “MIC of control antibiotic” value in the assay on S. aureus ATCC 29213 (setting [6]) and with E. coli ATCC 25922 (setting [6]) was 1 to 4 µg/mL each time. For the same compound, the “% control signal (relative maximal rate of firefly luciferase accumulation in vitro)” value in assay [4] was determined as 0.1%. Moreover, in assay [5], the “induction of translation errors (blue staining at edge of inhibition zone)” value is given as “acted as miscoding inductors”.
